Data set [1] is described as follows: Plasma level of Compound 1 and bioavailability after administration of Compound 1 and Compound 2 to rats. The format is in vivo. Conditions: rat, 5 mg/kg oral vs Compound 1 1 mg/kg intravenous, Compound 1 measured in plasma, corrected for molecular weight, mean ± SE, n=3. Here is the method: Compound 1 or Compound 2 was orally administered to rats in an amount of 5 mg/kg, and Compound 1 was intravenously administered in an amount of 1 mg/kg, after which the concentration of Compound 1 in plasma was measured. The experiment was carried out with n=3 in each of the both groups. […] Thus, it was shown that Compound 2 can be used in a manner similar to Compound 1. Compound 1 and Compound 2 used in this experiment was synthesized in accordance with the method described in Patent Document 4.

Data set [2] concerns ADP-induced rat platelet aggregation. In words: Platelet aggregation inhibition action in rat (ADP-induced aggregation after oral administration). The class given is in vivo. Conditions: stimulation with 10 μM ADP; oral: sodium salt of Compound 1 30 mg/kg (blood at 1 hour), beraprost sodium 0.3 mg/kg (0.5 hour); n=6. Here is the method:
To determine the dose with which the PGI2-receptor agonistic activity is equivalent between the sodium salt of Compound 1 and beraprost sodium, the platelet aggregation inhibition action which is the major pharmacological action of PGI2-receptor agonists was used as an index for comparison. The sodium salt of Compound 1 (30 mg/kg) or beraprost sodium (0.3 mg/kg) was orally administered to rats fasted for 1 day, and blood was collected therefrom at the time when the plasma level of each compound became maximum, that is, 1 hour after the administration of the sodium salt of Compound 1 (Non-patent Document: J Pharmacol Exp Ther 322:1181-1188 2007) or 0.5 hour after the administration of beraprost sodium (Non-patent Document: Xenobiotic Metabolism and Disposition 6:713-725 1989), followed by measuring ADP-induced rat platelet aggregation. In the both groups, the experiment was carried out with n=6. The sodium salt of Compound 1, which was one of the PGI2-receptor agonists used herein, was synthesized by treating a carboxylic acid with sodium hydroxide, which carboxylic acid was synthesized according to the method described in Patent Document 4.

The subject of data set [3] is rats suffering from chronic renal failure. The experiment in a line: Pharmacological effect in rats suffering from chronic renal failure: renal function, hematocrit, hemoglobin. The format is in vivo, WKY rats. Conditions: for Hematocrit value / Hemoglobin content: oral twice a day from week 2. Here is the method:
Rabbit anti-rat glomerular basement membrane antiserum (14-fold diluted, 3 mL/kg) was intravenously injected to WKY rats of 8 weeks old, to induce glomerulonephritis. […] Further, creatinine clearance, which is used as an alternative to glomerular filtration rate (GFR), was 2.63±0.07 mL/min. (N=3) in the normal group, and 1.22±0.04 mL/min. (N=21) in the nephritis-induced group. That is, creatinine clearance in the nephritis-induced group decreased to not more than 50% with respect to that of the normal group, and therefore it was confirmed that the nephritis-induced group developed chronic renal failure whose primary disease was glomerulonephritis. Thus, the time of establishment of the chronic renal failure was defined as 2 weeks after the induction of nephritis. […] This stage was the phase in which introduction of dialysis is considered in human, and corresponded to the most serious phase in chronic renal failure in the conservative stage.
Thus, 2 weeks after the induction of nephritis, based on the serum creatinine value, the rats suffering from chronic renal failure were grouped into the normal group (with neither induction of nephritis nor administration, n=4), the control group (administration of only a vehicle, n=7), the group to be treated with the sodium salt of Compound 1 (administration of 30 mg/kg twice a day, n=7) and the group to be treated with beraprost sodium (administration of 0.3 mg/kg twice a day, n=7), after which oral administration of the drugs were begun, followed by daily administration thereof. As the vehicle for the drugs, 0.25% sodium carboxymethylcellulose solution was used.
From 2 weeks after the induction of nephritis when the chronic renal failure was established, until 6 weeks after the induction of nephritis, urine collection and blood collection were carried out as appropriate, and the serum creatinine value, BUN and creatinine clearance were measured for each group to evaluate renal function. Further, the hematocrit, the hemoglobin content, and the SOD activity of the renal tissue, which are closely linked to the diseased state of chronic renal failure, were measured, and the expression level of mRNA of an organic anion transporter OAT-3 was quantified. The SOD activity was measured with the SOD assay kit WST (Dojindo Laboratories), and the expression level of mRNA of OAT-3 was quantified using LightCycler FastStart DNA Master SYBR Green I (Roche).
Six weeks after the induction of nephritis when the chronic renal failure in the conservative stage progressed to a serious phase in the control group, a statistical analysis was carried out. In terms of statistical difference, homoscedasticity was tested by the Bartlett's test between the control group and the respective drug-administered groups. In homoscedastic cases, the parametric Dunnett's test was carried out between the respective drug-administered groups and the control group, while in heteroscedastic cases, the nonparametric Dunnett's test was carried out therebetween, using a significance level of less than 5%.

The next data set has as its system SOD. In words: SOD activity in the renal tissue of rats suffering from chronic renal failure. The class given is in vivo, WKY rats. Conditions: 6 weeks after induction of nephritis, oral twice a day from week 2, mean ± SE, n=7. How it is done: (§1) Rabbit anti-rat glomerular basement membrane antiserum (14-fold diluted, 3 mL/kg) was intravenously injected to WKY rats of 8 weeks old, to induce glomerulonephritis. […] Further, creatinine clearance, which is used as an alternative to glomerular filtration rate (GFR), was 2.63±0.07 mL/min. (N=3) in the normal group, and 1.22±0.04 mL/min. (N=21) in the nephritis-induced group. That is, creatinine clearance in the nephritis-induced group decreased to not more than 50% with respect to that of the normal group, and therefore it was confirmed that the nephritis-induced group developed chronic renal failure whose primary disease was glomerulonephritis. Thus, the time of establishment of the chronic renal failure was defined as 2 weeks after the induction of nephritis. […]
(§2) From 2 weeks after the induction of nephritis when the chronic renal failure was established, until 6 weeks after the induction of nephritis, urine collection and blood collection were carried out as appropriate, and the serum creatinine value, BUN and creatinine clearance were measured for each group to evaluate renal function. Further, the hematocrit, the hemoglobin content, and the SOD activity of the renal tissue, which are closely linked to the diseased state of chronic renal failure, were measured, and the expression level of mRNA of an organic anion transporter OAT-3 was quantified. […]

The next data set has as its system OAT-3. In words: Expression level of mRNA of OAT-3 in the renal cortex of rats suffering from chronic renal failure. The class given is in vivo, WKY rats. The conditions noted are these: 6 weeks after induction of nephritis, oral twice a day from week 2, mean ± SE, n=7, normal group 1.00 ± 0.06. How it is done: as §1, §2
For data set [4] the following is noted: after oral administration to rats; from cited literature; cited from earlier work.
The mark [5] stands for this setting: 6 weeks after induction of nephritis, oral twice a day from week 2 (Compound 1 Na salt 30 mg/kg, beraprost sodium 0.3 mg/kg), mean ± SE, n=7.
Where [6] appears, read: 6 weeks after induction of nephritis, mean ± SE, n=7.
The mark [7] stands for this setting: until 6 weeks after the induction of nephritis, 30 mg/kg oral twice a day.

Where a name gives a salt, the structure may show the parent alone.

`CC(C)N(CCCCOCC(=O)O)c1cnc(-c2ccccc2)c(-c2ccccc2)n1` [Compound 1] showed a bioavailability in data set [1] of 43.3 ± 2.6%.

For `CC(C)N(CCCCOCC(=O)O)c1cnc(-c2ccccc2)c(-c2ccccc2)n1` [Sodium salt of Compound 1], the “rate of suppression of rat platelet aggregation” value in data set [2] is listed as 47.0±7.9%. Further, the Creatinine clearance in data set [3] (2 weeks after induction of nephritis, at the beginning of the administration (baseline of the treated group)) amounted to 1.21 ± 0.06 mL/min. In data set [3] (setting [5]), the BUN came to 26.8 ± 2.49 mg/dL, the Creatinine clearance turned out to be 1.48 ± 0.11 mL/min and the Serum creatinine value is given as 0.47 ± 0.04 mg/dL. The Creatinine clearance in data set [3] (6 weeks after induction of nephritis, oral twice a day from week 2 (Compound 1 Na salt 30 mg/kg, beraprost sodium 0.3 mg/kg), mean ± SE, n=7, listed as sodium salt of Compound 1) is 1.48 ± 0.11 mL/min. In data set [3] (setting [6]), this molecule gave a Hematocrit value of 37.1 ± 0.71 % and a Hemoglobin content of 13.7 ± 0.28 g/dL. Also, in data set [3] (setting [7]), the “BUN, course compared to control group (FIG. 2)” value is “kept low compared to that in the control group”; the “creatinine clearance, course compared to control group (FIG. 3)” value was “kept high compared to that in the control group”; the “serum creatinine value, course compared to control group (FIG. 1)” value is “kept low compared to that in the control group”. In addition, the “SOD activity (%, taking the activity in the normal group as 100%)” value in the data set with SOD is recorded as 83.6 ± 2.52 %. Further, in the data set on OAT-3, the “Expression level of mRNA of OAT-3 (ratio to that of GAPD)” value is 0.42 ± 0.05. In data set [4], the “time when the plasma level became maximum” value is 1 h.

On to `CC#CCC(C)[C@H](O)/C=C/[C@@H]1[C@H]2c3cccc(CCCC(=O)O)c3O[C@H]2C[C@H]1O` (mixture of isomers) [Beraprost sodium, reference compound], for which the “rate of suppression of rat platelet aggregation” value in data set [2] is on record as 64.2±8.3%. Also, in data set [3] (setting [5]), the BUN came out at 42.1 ± 6.41 mg/dL, the Creatinine clearance was 0.77 ± 0.13 mL/min and the Serum creatinine value was 0.85 ± 0.12 mg/dL. Besides, in data set [3] (setting [6]), the Hematocrit value was 33.9 ± 0.97% and the Hemoglobin content was found to be 12.3 ± 0.28 g/dL. The “SOD activity (%, taking the activity in the normal group as 100%)” value in the data set on SOD was determined as 67.9 ± 5.45%. Further, in the data set on OAT-3, the “Expression level of mRNA of OAT-3 (ratio to that of GAPD)” value was found to be 0.24 ± 0.04. The “time when the plasma level became maximum” value in data set [4] was 0.5 h.

In general, bioavailability refers to dose-corrected exposure relative to a reference, in per cent. A low value points to little systemic uptake.

(Values after patent US8575175B2, “Therapeutic agent for chronic renal failure” (Toray Industries, Inc., priority 2008, dated 2013).)
